Measurements taken from patent US20260224571A1, “AZACYCLOALKANE COMPOUND AND PHARMACEUTICAL COMPOSITION, AND USE THEREOF” (Prime Gene Therapeutics Co., Ltd., priority 2023, published 2026).

How the values were obtained:
[1] = molecular target: ROCK1 (Homo sapiens, UniProt Q13464); assay: ROCK1 kinase enzymatic activity (HTRF, STK2 substrate); format: biochemical; details: ROCK1 kinase reacted at room temperature for 20 minutes
From the text: (§1) The kinase activity data was expressed by comparing the kinase activity of the test compound and that of the blank group (containing only DMSO), and the IC50 value was obtained by curve fitting using Prism software (GraphPad7.0).

[2] = molecular target: ROCK2 (Homo sapiens, UniProt O75116); assay: ROCK2 kinase enzymatic activity (HTRF, STK2 substrate); format: biochemical; details: ROCK2 kinase reacted at room temperature for 30 minutes
From the text: as §1

ROCK1, sequence (Q13464 whole entry): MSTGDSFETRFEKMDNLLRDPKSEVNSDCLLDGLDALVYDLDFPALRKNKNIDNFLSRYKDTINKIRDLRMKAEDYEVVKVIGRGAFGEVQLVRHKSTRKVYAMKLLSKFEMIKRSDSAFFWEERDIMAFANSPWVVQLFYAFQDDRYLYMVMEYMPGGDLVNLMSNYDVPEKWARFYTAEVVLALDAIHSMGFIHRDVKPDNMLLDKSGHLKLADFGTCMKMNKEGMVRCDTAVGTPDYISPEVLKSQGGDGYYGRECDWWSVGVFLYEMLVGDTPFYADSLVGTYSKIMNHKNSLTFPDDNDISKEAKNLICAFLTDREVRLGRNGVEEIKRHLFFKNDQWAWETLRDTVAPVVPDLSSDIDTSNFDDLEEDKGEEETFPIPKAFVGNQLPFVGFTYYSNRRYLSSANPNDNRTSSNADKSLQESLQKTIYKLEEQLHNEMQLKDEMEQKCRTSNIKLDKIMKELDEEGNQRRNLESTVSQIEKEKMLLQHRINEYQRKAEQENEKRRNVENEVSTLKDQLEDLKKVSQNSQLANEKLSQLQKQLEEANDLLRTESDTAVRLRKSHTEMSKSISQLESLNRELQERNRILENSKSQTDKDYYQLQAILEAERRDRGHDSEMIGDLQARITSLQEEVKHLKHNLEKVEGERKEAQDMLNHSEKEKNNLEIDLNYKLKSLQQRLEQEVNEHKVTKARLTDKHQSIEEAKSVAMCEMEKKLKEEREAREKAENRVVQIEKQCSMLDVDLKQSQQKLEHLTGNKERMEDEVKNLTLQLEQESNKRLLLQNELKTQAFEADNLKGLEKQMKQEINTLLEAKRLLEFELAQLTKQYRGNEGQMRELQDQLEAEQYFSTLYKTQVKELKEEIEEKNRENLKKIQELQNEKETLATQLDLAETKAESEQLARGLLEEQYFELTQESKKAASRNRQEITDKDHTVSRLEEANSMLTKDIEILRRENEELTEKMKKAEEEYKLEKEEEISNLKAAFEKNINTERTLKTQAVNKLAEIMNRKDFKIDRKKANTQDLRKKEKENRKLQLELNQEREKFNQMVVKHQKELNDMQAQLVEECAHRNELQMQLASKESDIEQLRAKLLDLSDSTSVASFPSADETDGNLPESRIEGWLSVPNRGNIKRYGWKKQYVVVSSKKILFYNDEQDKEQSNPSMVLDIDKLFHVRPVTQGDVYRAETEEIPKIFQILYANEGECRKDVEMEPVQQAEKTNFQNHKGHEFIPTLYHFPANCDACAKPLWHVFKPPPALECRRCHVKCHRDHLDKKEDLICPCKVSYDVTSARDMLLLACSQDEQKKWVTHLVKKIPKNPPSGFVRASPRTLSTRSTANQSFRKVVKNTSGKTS
ROCK2, sequence (O75116 whole entry): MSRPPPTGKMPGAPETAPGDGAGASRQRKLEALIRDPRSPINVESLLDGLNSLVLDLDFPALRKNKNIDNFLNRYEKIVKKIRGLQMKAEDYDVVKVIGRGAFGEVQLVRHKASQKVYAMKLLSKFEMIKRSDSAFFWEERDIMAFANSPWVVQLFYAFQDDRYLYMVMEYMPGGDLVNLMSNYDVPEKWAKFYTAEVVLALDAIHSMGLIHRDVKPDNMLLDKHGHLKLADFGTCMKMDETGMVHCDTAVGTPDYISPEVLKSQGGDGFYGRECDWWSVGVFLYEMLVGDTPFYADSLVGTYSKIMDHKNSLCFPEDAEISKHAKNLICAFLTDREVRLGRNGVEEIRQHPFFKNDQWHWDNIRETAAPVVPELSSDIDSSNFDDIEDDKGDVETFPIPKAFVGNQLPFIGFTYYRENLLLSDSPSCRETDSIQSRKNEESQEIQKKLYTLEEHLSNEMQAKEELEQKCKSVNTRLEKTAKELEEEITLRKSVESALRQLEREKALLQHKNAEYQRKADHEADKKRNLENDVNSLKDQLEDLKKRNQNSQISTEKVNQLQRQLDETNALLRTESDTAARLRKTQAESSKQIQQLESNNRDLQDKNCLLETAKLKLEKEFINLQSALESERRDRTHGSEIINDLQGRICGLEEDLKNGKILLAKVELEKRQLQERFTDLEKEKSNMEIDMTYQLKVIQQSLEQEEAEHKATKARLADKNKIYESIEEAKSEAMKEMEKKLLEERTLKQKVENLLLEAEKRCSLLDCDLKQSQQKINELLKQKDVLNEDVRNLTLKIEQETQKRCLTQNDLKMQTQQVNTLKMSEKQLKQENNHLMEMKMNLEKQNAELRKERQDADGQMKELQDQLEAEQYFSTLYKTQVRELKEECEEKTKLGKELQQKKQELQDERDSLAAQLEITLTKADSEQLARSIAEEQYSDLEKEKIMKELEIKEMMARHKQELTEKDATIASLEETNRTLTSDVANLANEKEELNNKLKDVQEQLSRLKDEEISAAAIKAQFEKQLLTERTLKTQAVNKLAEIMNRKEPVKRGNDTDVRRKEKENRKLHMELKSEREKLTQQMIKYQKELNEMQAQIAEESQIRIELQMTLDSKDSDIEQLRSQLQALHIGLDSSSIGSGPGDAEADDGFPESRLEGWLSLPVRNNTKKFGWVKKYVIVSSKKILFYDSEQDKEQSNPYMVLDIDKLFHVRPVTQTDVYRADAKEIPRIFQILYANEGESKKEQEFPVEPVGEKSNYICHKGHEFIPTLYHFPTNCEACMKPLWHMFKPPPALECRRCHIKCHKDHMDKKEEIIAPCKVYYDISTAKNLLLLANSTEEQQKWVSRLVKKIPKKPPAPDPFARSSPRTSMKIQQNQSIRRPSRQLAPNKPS

How did the IC50 [1] turn out when `N#CCC1(n2cc(-c3ncnc4[nH]ccc34)c(N)n2)CN(S(=O)(=O)CCC(F)(F)F)C1` [Example 4, 2-(3-(3-amino-4-(7H-pyrrolo[2,3-d]pyrimidin-4-yl)-1H-pyrazol-1-yl)-1-((3,3,3-trifluoropropyl)sulfonyl)azetidine-3-yl)acetonitrile] was run?
Its IC50 is under 5 nM.

And the IC50 [2]?
The IC50 was under 5 nM.

Which IC50 [1] does the source give for `N#CCC1(n2cc(-c3ncnc4[nH]ccc34)c(N)n2)CN(S(=O)(=O)CC(=O)NN)C1` [Example 9] here?
The IC50 was under 10 nM.

And the IC50 [2]?
Its IC50 is under 10 nM.

Which results are given for `CNC(=O)N1CC(CC#N)(n2cc(-c3ncnc4[nH]ccc34)c(N)n2)C1` [Example 10, 3-(3-amino-4-{7H-pyrrolo[2,3-d]pyrimidin-4-yl}pyrazol-1-yl)-3-(cyanomethyl)-N-methylazetidine-1-formamide]?
IC50 [1]: < 5 nM; IC50 [2]: < 5 nM

With `N#CCC1(n2cc(-c3ncnc4[nH]ccc34)c(N)n2)CN(C(=O)NCC(F)(F)F)C1` [Example 11, 3-(3-amino-4-(7H-pyrrolo[2,3-d]pyrimidin-4-yl)-1H-pyrazol-1-yl)-3-(cyanomethyl)-N-(2,2,2-trifluoroethyl)azetidine-1-formamide] as the compound, how does the IC50 [1] read?
Its IC50 is under 10 nM.

And the IC50 [2]?
The IC50 was under 10 nM.

For `N#CCC1(n2cc(-c3ncnc4[nH]ccc34)c(N)n2)CN(C(=O)NC2CC2)C1` [Example 12, 3-(3-amino-4-(7H-pyrrolo[2,3-d]pyrimidin-4-yl)-1H-pyrazol-1-yl)-3-(cyanomethyl)-N-cyclopropylazetidine-1-formamide], which IC50 [1] is on record?
Its IC50 is under 50 nM.

And the IC50 [2]?
The IC50 was under 50 nM.

With `N#CCC1(n2cc(-c3ncnc4[nH]ccc34)c(N)n2)CN(C(=O)N2CC(F)(F)C2)C1` [Example 13, 2-(3-(3-amino-4-(7H-pyrrolo[2,3-d]pyrimidin-4-yl)-1H-pyrazol-1-yl)-1-(3,3-difluoroazetidine-1-carbonyl)azetidin-3-yl)acetonitrile] as the compound, how does the IC50 [1] read?
Its IC50 is under 50 nM.

What about the IC50 [2] of the same compound?
The IC50 was under 50 nM.

What does the source list for `CCNC(=O)N1CC(CC#N)(n2cc(-c3ncnc4[nH]ccc34)c(N)n2)C1` [Example 14, 3-(3-amino-4-(7H-pyrrolo[2,3-d]pyrimidin-4-yl)-1H-pyrazol-1-yl)-3-(cyanomethyl)-N-ethylazetidine-1-formamide]?
IC50 [1]: < 5 nM; IC50 [2]: < 5 nM

Which IC50 [1] does the source give for `CC(C)NC(=O)N1CC(CC#N)(n2cc(-c3ncnc4[nH]ccc34)c(N)n2)C1` [Example 15, 3-(3-amino-4-(7H-pyrrolo[2,3-d]pyrimidin-4-yl)-1H-pyrazol-1-yl)-3-(cyanomethyl)-N-isopropylaza-1-formamide] here?
The IC50 was under 50 nM.

What about the IC50 [2] of the same compound?
The IC50 was under 50 nM.

For `C[C@H](NC(=O)N1CC(CC#N)(n2cc(-c3ncnc4[nH]ccc34)c(N)n2)C1)C(F)(F)F` [Example 16, (S)-3-(3-amino-4-(7H-pyrrolo[2,3-d]pyrimidin-4-yl)-1H-pyrazol-1-yl)-3-(cyanomethyl)-N-(1,1,1-trifluoropropan-2-yl)azetidine-1-formamide], which IC50 [1] is on record?
The IC50 was under 50 nM.

What about the IC50 [2] of the same compound?
The IC50 was under 50 nM.

For `N#CCC1(n2cc(-c3ncnc4[nH]ccc34)c(N)n2)CN(C(=O)NCCO)C1` [Example 17, 3-(3-amino-4-(7H-pyrrolo[2,3-d]pyrimidin-4-yl)-1H-pyrazol-1-yl)-3-(cyanomethyl)-N-(2-hydroxyethyl)azetidine-1-formamide], which IC50 [1] is on record?
The IC50 was under 50 nM.

And the IC50 [2]?
Its IC50 is under 50 nM.

For `N#CCC1(n2cc(-c3ncnc4[nH]ccc34)c(N)n2)CN(C(=O)N[C@H]2CC2(F)F)C1` [Example 20, (S)-3-(3-amino-4-(7H-pyrrolo[2,3-d]pyrimidin-4-yl)-1H-pyrazol-1-yl)-3-(cyanomethyl)-N-(2,2-difluorocyclopropyl)azetidine-1-formamide], which IC50 [1] is on record?
The IC50 was under 10 nM.

And the IC50 [2]?
The IC50 was under 10 nM.

What does the source list for `N#CCC(=O)N1CC(CC#N)(n2cc(-c3ncnc4[nH]ccc34)c(N)n2)C1` [Example 21, 3-(3-(3-amino-4-(7H-pyrrolo[2,3-d]pyrimidin-4-yl)-1H-pyrazol-1-yl)-3-(cyanomethyl)azetidine-1-yl]-3-oxopropionitrile]?
IC50 [1]: < 5 nM; IC50 [2]: < 10 nM

What does the source list for `N#CCC1(n2cc(-c3ncnc4[nH]ccc34)c(N)n2)CN(C(=O)C2CC2)C1` [Example 22, 2-(3-(3-amino-4-(7H-pyrrolo[2,3-d]pyrimidin-4-yl)-1H-pyrazol-1-yl)-1-(cyclopropanecarbonyl)azetidine-3-yl)acetonitrile]?
IC50 [1]: < 50 nM; IC50 [2]: < 50 nM

What does the source list for `C[C@H](N)C(=O)N1CC(CC#N)(n2cc(-c3ncnc4[nH]ccc34)c(N)n2)C1` [Example 23, 2-(1-alaninyl-3-(3-amino-4-(7H-pyrrolo[2,3-d]pyrimidin-4-yl)-1H-pyrazol-1-yl)azetidine-3-yl)acetonitrile]?
IC50 [1]: < 50 nM; IC50 [2]: < 50 nM

Which results are given for `N#CCC1(n2cc(-c3ncnc4[nH]ccc34)c(N)n2)CN(C(=O)C2(F)CC2)C1` [Example 24, 2-(3-(3-amino-4-(7H-pyrrolo[2,3-d]pyrimidin-4-yl)-1H-pyrazol-1-yl)-1-(1-fluorocyclopropane-1-carbonyl)azetidine-3-yl)acetonitrile]?
IC50 [1]: < 50 nM; IC50 [2]: < 50 nM

What does the source list for `N#CCC1(n2cc(-c3ncnc4[nH]ccc34)c(N)n2)CN(C(=O)C2(C(F)(F)F)CC2)C1` [Example 25, 2-(3-(3-amino-4-(7H-pyrrolo[2,3-d]pyrimidin-4-yl)-1H-pyrazol-1-yl)-1-(1-(trifluoromethyl)cyclopropane-1-carbonyl)azetidine-3-yl)acetonitrile]?
IC50 [1]: < 10 nM; IC50 [2]: < 10 nM

How did the IC50 [1] turn out when `N#CCC1(n2cc(-c3ncnc4[nH]ccc34)c(N)n2)CN(C(=O)C2(C#N)CC2)C1` [Example 26, 1-(3-(3-amino-4-(7H-pyrrolo[2,3-d]pyrimidin-4-yl)-1H-pyrazol-1-yl)-3-(cyanomethyl)azetidine-1-carbonyl)cyclopropane-1-nitrile] was run?
The IC50 was under 10 nM.

What about the IC50 [2] of the same compound?
The IC50 was under 10 nM.

Which IC50 [1] does the source give for `N#CCC1(n2cc(-c3ncnc4[nH]ccc34)c(N)n2)CN(C(=O)C(F)(F)C(F)(F)F)C1` [Example 27] here?
The IC50 was under 10 nM.

What about the IC50 [2] of the same compound?
Its IC50 is under 10 nM.

Which results are given for `CN(C)CC(=O)N1CC(CC#N)(n2cc(-c3ncnc4[nH]ccc34)c(N)n2)C1` [Example 28, 2-(3-(3-amino-4-(7H-pyrrolo[2,3-d]pyrimidin-4-yl)-1H-pyrazol-1-yl)-1-(dimethylglycine)azetidine-3-yl)acetonitrile]?
IC50 [1]: < 50 nM; IC50 [2]: < 50 nM

For `N#CCN1CC(CC#N)(n2cc(-c3ncnc4[nH]ccc34)c(N)n2)C1` [Example 29, 2,2′-(3-(3-amino-4-(7H-pyrrolo[2,3-d]pyrimidin-4-yl)-1H-pyrazol-1-yl)azetidine-1,3-diyl)diacetonitrile], which IC50 [1] is on record?
Its IC50 is under 10 nM.

What about the IC50 [2] of the same compound?
The IC50 was under 10 nM.

Which results are given for `N#CCC1(n2cc(-c3ncnc4[nH]ccc34)c(N)n2)CN(C(=O)CC(F)(F)F)C1` [Example 30]?
IC50 [1]: < 5 nM; IC50 [2]: < 10 nM

How did the IC50 [1] turn out when `N#CCC1(n2cc(-c3ncnc4[nH]ccc34)c(N)n2)CN(C(=O)C2CC(F)(F)C2)C1` [Example 32, 2-(3-(3-amino-4-(7H-pyrrolo[2,3-d]pyrimidin-4-yl)-1H-pyrazol-1-yl)-1-(3,3-difluorocyclobutane-1-carbonyl)azetidine-3-yl)acetonitrile] was run?
The IC50 was under 5 nM.

What about the IC50 [2] of the same compound?
Its IC50 is under 10 nM.

What does the source list for `C[C@H](O)C(=O)N1CC(CC#N)(n2cc(-c3ncnc4[nH]ccc34)c(N)n2)C1` [Example 33, (S)-2-(3-(3-amino-4-(7H-pyrrolo[2,3-d]pyrimidin-4-yl)-1H-pyrazol-1-yl)-1-(2-hydroxypropionyl)azetidine-3-yl)acetonitrile]?
IC50 [1]: < 10 nM; IC50 [2]: < 10 nM

How did the IC50 [1] turn out when `N#CCC1(n2cc(-c3ncnc4[nH]ccc34)c(N)n2)CN(C(=O)[C@@H]2C[C@H]2C#N)C1` [Example 35, (1R, 2R)-2-(3-(3-amino-4-(7H-pyrrolo[2,3-d]pyrimidin-4-yl)-1H-pyrazol-1-yl)-3-(cyanomethyl)azetidine-1-carbonyl)cyclopropane-1-nitrile] was run?
Its IC50 is under 10 nM.

What about the IC50 [2] of the same compound?
The IC50 was under 10 nM.

`CS(=N)(=O)N1CC(CC#N)(n2cc(-c3ncnc4[nH]ccc34)c(N)n2)C1` (centres unmarked) [Example 36, 2-(3-(3-amino-4-(7H-pyrrolo[2,3-d]pyrimidin-4-yl)-1H-pyrazol-1-yl)-1-(S-methysulfonylimino)azetidine-3-yl)acetonitrile] was tested. Which IC50 [1] did it give?
The IC50 was under 5 nM.

What about the IC50 [2] of the same compound?
The IC50 was under 5 nM.

How did the IC50 [1] turn out when `CC(C)S(=N)(=O)N1CC(CC#N)(n2cc(-c3ncnc4[nH]ccc34)c(N)n2)C1` (centres unmarked) [Example 39, 2-(3-(3-amino-4-(7H-pyrrolo[2,3-d]pyrimidin-4-yl)-1H-pyrazol-1-yl)-1-(prop-2-yl-sulfonylimino)azetidine-3-yl)acetonitrile] was run?
The IC50 was under 50 nM.

What about the IC50 [2] of the same compound?
The IC50 was under 50 nM.

What does the source list for `N#CCC1(n2cc(-c3ncnc4[nH]ccc34)c(N)n2)CN(S(=O)(=O)NS(N)(=O)=O)C1` [Example 42, 3-(3-amino-4-(7H-pyrrolo[2,3-d]pyrimidin-4-yl)-1H-pyrazol-1-yl)-3-(cyanomethyl)-N-sulfamoylazetidine-1-sulfonamide]?
IC50 [1]: < 100 nM; IC50 [2]: < 50 nM

Which IC50 [1] does the source give for `N#CCC1(n2cc(-c3ncnc4[nH]ccc34)c(N)n2)CN(S(=O)(=O)N(CC(F)(F)F)CC(F)(F)F)C1` [Example 43, 3-(3-amino-4-(7H-pyrrolo[2,3-d]pyrimidin-4-yl)-1H-pyrazol-1-yl)-3-(cyanomethyl)-N,N-bis(2,2,2-trifluoroethyl)azetidine-1-sulfonamide] here?
The IC50 was under 10 nM.

What about the IC50 [2] of the same compound?
The IC50 was under 10 nM.

Which IC50 [1] does the source give for `N#CCC1(n2cc(-c3ncnc4[nH]ccc34)c(N)n2)CN(S(=O)(=O)NCCO)C1` [Example 44, 3-(3-amino-4-(7H-pyrrolo[2,3-d]pyrimidin-4-yl)-1H-pyrazol-1-yl)-3-(cyanomethyl)-N-(2-hydroxyethyl)azetidine-1-sulfonamide] here?
The IC50 was under 50 nM.

What about the IC50 [2] of the same compound?
Its IC50 is under 50 nM.

With `N#CCC1(n2cc(-c3ncnc4[nH]ccc34)c(N)n2)CN(S(=O)(=O)NCCCl)C1` [Example 46, 3-(3-amino-4-(7H-pyrrolo[2,3-d]pyrimidin-4-yl)-1H-pyrazol-1-yl)-N-(2-chloroethyl)-3-(cyanomethyl)azetidine-1-sulfonamide] as the compound, how does the IC50 [1] read?
Its IC50 is under 10 nM.

And the IC50 [2]?
Its IC50 is under 5 nM.

What does the source list for `N#CCC1(n2cc(-c3ncnc4[nH]ccc34)c(N)n2)CN(S(=O)(=O)N2CC2)C1` [Example 47, 2-(3-(3-amino-4-(7H-pyrrolo[2,3-d]pyrimidin-4-yl)-1H-pyrazol-1-yl)-1-(aziridin-1-ylsulfonyl)azetidine-3-yl)acetonitrile]?
IC50 [1]: < 5 nM; IC50 [2]: < 5 nM
